Like-named read-outs stand apart in the source and are kept apart here.
Assays:
[1] = biological target: T1, acetone carboxylase (AC, XaAC), recombinant (Xanthobacter versatilis, UniProt Q8RM03+Q8RM04); conditions: turnover only
T1 construct: gene acxA

[2] = biological target: T2, native acetone carboxylase (AC) from X. autotrophicus 7C (Xanthobacter versatilis, UniProt Q8RM03+Q8RM04); test: X-ray crystal structure; type: binding; set-up: gene acxA; native purification from acetone-grown cells, untagged; (alpha beta gamma)2 heterohexamer, 360 kDa; with Acetone carboxylase gamma subunit; conditions: co-crystallised with 10 mM ATP and 10 mM acetone; AMP bound at beta subunit; acetate at Mn site; pH 7.5
[3] = biological target: T2, native acetone carboxylase (AC) from X. autotrophicus 7C; set-up: gene acxA; conditions: with acetone and HCO3-; turnover only
[4] = biological target: the molecule itself; test: crystal structure; recombinant AC (αβγ)2, ligand-free and AMP-bound; hanging drop, 25 °C, 14-18% PEG 3350, 0.2 M MgSO4, pH 6.3; nucleotide additives 5 mM; SAD with selenium

T1 sequence (Q8RM04 whole entry, one chain of several): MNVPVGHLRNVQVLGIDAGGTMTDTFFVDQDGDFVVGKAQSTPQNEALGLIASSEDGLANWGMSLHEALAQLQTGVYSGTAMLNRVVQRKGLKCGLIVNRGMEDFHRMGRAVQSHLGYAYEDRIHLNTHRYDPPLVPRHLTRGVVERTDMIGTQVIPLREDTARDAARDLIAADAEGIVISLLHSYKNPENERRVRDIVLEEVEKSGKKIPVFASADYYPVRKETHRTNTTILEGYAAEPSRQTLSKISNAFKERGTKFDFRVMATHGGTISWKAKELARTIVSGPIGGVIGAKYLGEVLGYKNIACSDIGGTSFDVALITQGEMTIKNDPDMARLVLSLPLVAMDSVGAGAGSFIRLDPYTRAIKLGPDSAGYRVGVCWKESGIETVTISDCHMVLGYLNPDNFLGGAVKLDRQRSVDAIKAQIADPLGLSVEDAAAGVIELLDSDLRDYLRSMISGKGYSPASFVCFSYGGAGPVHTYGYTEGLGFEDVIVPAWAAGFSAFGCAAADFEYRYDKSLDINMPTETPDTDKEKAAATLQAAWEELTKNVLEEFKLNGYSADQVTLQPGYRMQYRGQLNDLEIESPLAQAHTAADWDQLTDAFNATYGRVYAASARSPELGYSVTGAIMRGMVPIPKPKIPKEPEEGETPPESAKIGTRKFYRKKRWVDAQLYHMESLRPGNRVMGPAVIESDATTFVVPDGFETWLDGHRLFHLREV
T1 sequence (Q8RM02 2-168, one chain of several, further chain): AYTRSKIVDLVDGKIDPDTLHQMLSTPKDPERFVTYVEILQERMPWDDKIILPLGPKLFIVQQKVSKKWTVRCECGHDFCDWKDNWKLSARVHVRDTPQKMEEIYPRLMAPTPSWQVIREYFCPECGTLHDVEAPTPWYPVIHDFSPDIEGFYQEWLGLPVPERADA
T2 sequence (Q8RM04 whole entry, one chain of several): as the sequence (Q8RM04 whole entry, one chain of several) above
T2 sequence (Q8RM02 2-168, one chain of several, further chain): as the sequence (Q8RM02 2-168, one chain of several, further chain) above

Q: CC(C)=O [acetone] was tested. Which “coupled spectrophotometric assay with 3-hydroxybutyrate dehydrogenase” value ([1]; ATP and HCO3- dependent carboxylation to acetoacetate) did it give?
A: actively catalyzed the ATP- and HCO3 ^− -dependent carboxylation of acetone to acetoacetate

Q: For Nc1ncnc2c1ncn2[C@@H]1O[C@H](COP(=O)(O)O)[C@@H](O)[C@H]1O [AMP], which X-ray crystal structure [2] is on record?
A: with AMP bound and no acetone visible in the density

Q: With Nc1ncnc2c1ncn2[C@@H]1O[C@H](COP(=O)(O)OP(=O)(O)OP(=O)(O)O)[C@@H](O)[C@H]1O [ATP] as the molecule, how does the “coupled spectrophotometric assay with 3-hydroxybutyrate dehydrogenase” value ([1]; with acetone and HCO3-) read?
A: actively catalyzed the ATP- and HCO3 ^− -dependent carboxylation of acetone to acetoacetate

Q: And the acetone carboxylation activity [3]?
A: actively catalyzed the ATP- and HCO3 ^− -dependent carboxylation of acetone to acetoacetate

B1: acetone carboxylase α subunit (AcxB) from Xanthobacter autotrophicus Py2, recombinant (natural protein, UniProt Q8RM03 1-776, looked up)
chain: MNVTVDQSTLAGATRGIVRGGETLKEHRDRLMAATKATGRYAGLKTLELREREPILYNKLFSRLRAGVVDARETAKKIAASPIVEQEGELCFTLYNAAGDSLLTSTGIIIHVGTMGAAIKYMIENNWEANPGVHDKDIFCNNDSLIGNVHPCDIHTIVPIFWEGELIGWVGGVTHVIDTGAVGPGSMATGQVQRFGDGYSITCRKVGANDTLFRDWLHESQRMVRTTRYWMLDERTRIAGCHMIRKLVEEVVAEEGIEAYWKFAYEAVEHGRLGLQARIKAMTIPGTYRQVGFVDVPYAHEDVRVPSDFAKLDTIMHAPCEMTIRRDGTWRLDFEGSSRWGWHTYNAHQVSFTSGIWVMMTQTLIPSEMINDGAAYGTEFRLPKGTWMNPDDRRVAFSYSWHFLVSAWTALWRGLSRSYFGRGYLEEVNAGNANTSNWLQGGGFNQYDEIHAVNSFECAANGTGATAVQDGLSHAAAIWNPEGDMGDMEIWELAEPLVYLGRQIKASSGGSGKYRGGCGFESLRMVWNAKDWTMFFMGNGHISSDWGLMGGYPAASGYRFAAHKTNLKELIASGAEIPLGGDTDPENPTWDAMLPDAQIKRDKQAITTEEMFSDYDLYLNYMRGGPGFGDPLDREPQAVADDINGGYVLERFAGEVYGVVVRKGADGQYGVDEAGTAAARAQIRKDRLAKSVPVSEWMKGEREKILAKDAGTQVRQMFAASFKLGPRFEKDFRTFWSLPDSWTLPEEEIGVPTYGSRYSMDISELPDVHTVQFVEE
notes: acetone carboxylase α subunit (75 kDa), gene acxB (Xaut_3510), X. autotrophicus Py2; amplified from the start to the stop codon; Subunit of the (αβγ)2 heterohexamer; The initial structure was solved from selenomethionine-labelled protein; also called AC α; Xaut_3510; source: E. coli BL21(DE3), co-expressed with the β and γ subunits, purified (His-NTA, desalting)
Q: Does B1 bind [4]?
A: binds

Reference: publication PMC5543143, “Structural Basis for the Mechanism of ATP-Dependent Acetone Carboxylation” (Scientific Reports, 2017)
